One series has as its system MDCK cells. Put plainly: HGF-induced MDCK cell scattering (coverslip assay). In kind it is cell-based, canine. How it is done:
FIG. 8A: Confluent MDCK cells on coverslips were treated with HGF (110 pM), or HGF (110 pM)+Norleual (100 pM) for 48 hours. Digital images of top, bottom, left, and right sectors were acquired and the scattering of cells In each digital image was scored in blinded fashion and normalized to control scores. The difference between HGF and HGF+Norleual groups was significant (*p=0.0245, n=3). Error bars indicate±SEM. FIG. 8B: MDCK cells were plated on 6 mm diameter coverslips in DMEM 10% FBS and grown to 100% confluency. The coverslips were then transferred to fresh 6 well plates and the cells were serum-deprived for 24 hours to synchronize the cells in the same growth state. Thereafter, the 20 ng/ml of HGF alone and in the presence of 10^−10 M Norleual in a 1% FBS DMEM was added to the cells. […] This ring was photographed and loaded on to NIH image J. Using NIH image J, the pixel count was determined for each ring. […]
Scattering assay. […] Scattering was scored in blinded fashion by comparison to a set of calibration scattering images by two investigators. […]
To explore the physiological significance of the angiotensin-like factor Norleual's ability to depress c-Met signaling, Norleual's effect on HGF induced cell scattering of Madin-Darby canine kidney (MDCK) cells was assessed with the coverslip assay (Miao et al., 2003 J. Cell Biol. 162: 1281-1292). […]

Another series deals with c-Met receptor. The series can be described thus: Cross-linking of 125I-COMPOUND 2 or 125I-HGF to HEK293 cell membranes with unlabeled competitor. The format is binding, human. The following applies: 125I-HGF cross-linked to HEK293 cell membranes, FIG. 3B. As for the experimental part:
FIG. 3C: ^125I-Norleual was bound to HEK membranes in the presence or absence of 1.5 nM HGF (n=8) or 1 μM Norleual (n=6). Total binding is reported as percent control (n=10), (*p<0.001). Error bars indicate±SD. […] Error bars indicate SD and data points were performed in duplicate.
Briefly, COMPOUND 2 was iodinated with […] and bound and cross-linked to HEK cell membranes with or without 1 nM COMPOUND 2 or 1 nM hepatocyte growth factor. Following solubilization and separation of free label by molecular sieving, total radioactive counts were determined. The ability of the ligand COMPOUND 2 to compete with hepatocyte growth factor binding to the c-Met receptor was also tested using mouse liver plasma membranes and intact HEK293 cells. Briefly, mouse liver was homogenized and incubated with ^125I-HGF with various concentrations of HGF or COMPOUND 2. Membranes were pelleted and unbound label was removed by washing, and total radioactive counts were determined. Next, HEK293 cell membranes were cross-linked with ^125I-HGF with unlabeled HGF or COMPOUND 2.

The nature of series [1]: Chronic treatment: body weight, DXA body composition and pathology. In kind it is in vivo, C57BL/6 mice. How it is done: Twenty-four five-week old C57BL/6 male mice were equally and randomly assigned to two groups. One group was assigned as control and the other treated. Treated mice were administered intermuscular (IM) injections of Norleual at 21 μg/kg/day, (40 μl injectable volume) every 48 hours for the duration of one hundred and one days. Injection sites were alternated between left and right gluteus medius. BD Ultra-Fine 3/10 cc insulin syringes were used as delivery apparatus. Mice were housed two per cage and had unlimited access to food and water. Mice were monitored daily for signs of morbidity. Mice were also weighed on a weekly basis. C57/BL6 mice were treated either with vehicle control or with Norleual chronically for 101 days.
To assess body composition of the mice, the Comparative Orthopedic Research Laboratory at the Washington State University Veterinary School was utilized. A Hologic QDR4500A fan beam dual-energy X-ray absorptiometer (DXA, Hologic Inc., Bedford, Mass.) was used to assess the lean body mass (muscle), fat, and bone composition of each mouse on day one hundred one of the experiment. Mice were sacrificed and DXA scans were performed. Due to the volume limitations of the DXA instrument and to permit time for gross pathology, half of the mice were sacrificed and analyzed on day 101. The remaining mice were sacrificed and analyzed 22 hours later. Control and treated mice were split evenly among the two sacrifice episodes. Data were collected and the control group was compared to the Norleual treated group by two-tailed student's t-tests using InStat software (GraphPad, San Diego, Calif.). Figures were created using GraphPad Prism software.
Gross pathology and microscopic pathological evaluation on autopsy tissue were performed in blinded fashion on animals following sacrifice, with attention to multiple organs.

Non-standard residues stand in square brackets, D forms with d. No end group written: not given here. Nle = CCCC[C@H](N)C(=O)O

Regarding “Nle-Tyr-Leu-ψ-His-Pro-Phe ([Nle]YLHPF; also: reduced peptide bond psi(CH2NH2) between Leu and His) [Norleual]”, the “HGF-induced MDCK cell scattering” value with MDCK cells (HGF 110 pM + Norleual 100 pM, 48 hours, FIG. 8A) is listed as “inhibited”. Besides, in the series on MDCK cells (HGF 20 ng/ml, COMPOUND 2 10^−10M, FIG. 7), the “Hepatocyte growth factor-dependent cell scattering” value was “inhibited”. Further, the “Mode of inhibition of HGF binding to the c-Met receptor” value in the series with c-Met receptor is given as “competitive inhibitor of HGF binding to the c-Met receptor”. Further, the “Visual inspection of animals versus control” value in series [1] (101 days treatment) is reported as “visibly less bulky”. For the same substance, the “Scale measured weights versus control mice” value in series [1] (IM 21 μg/kg/day every 48 hours, day 101, p=0.0130) is reported as “significantly lower”. In addition, the “Distribution of lipid vacuoles in the liver relative to control animals” value in series [1] (autopsy tissue, blinded pathology) is “marked reduction”. For the same substance, the “DXA measured bone mineral density versus control mice” value in series [1] (day 101) is on record as “not statistically significant”. In addition, in series [1] (day 101, p<0.0001), the “Percent fat versus control mice (DXA)” value is reported as “significantly lower”. Also, in series [1] (day 101, p=0.0146), the “DXA measured mass versus control mice” value is “significantly lower”. Also, in series [1] (day 101, p=0.023), the “DXA measured area versus control mice” value was “significantly lower”. In series [1] (day 101, p=0.18), the “Lean body mass+bone mineral content (BMC) versus control mice (DXA)” value is “not significantly different”.

Values taken from US8236761B2, “C-Met receptor regulation by angiotensin IV (AT4) receptor ligands” (Washington State University Research Foundation, priority 2006, dated 2012).
